This passage reports Kd results from PubChem BioAssay AID1549 (Sanford-Burnham Center for Chemical Genomics, 2009).

Calls of active or inactive are those of the source. No rule for the calls is given here.

The target of this experiment is Influenza A virus M2 proton channel (A/TW/4845/1999 H1N1). Nature of the experiment: NMR binding screen, influenza A virus M2 proton channel, Kd (AID 1549). The following applies: M2 protein.
As for `COCc1c(CN)cnc(C)c1N`, the Kd is > 4 mM (inactive). Next, `Cc1cc(C(=O)N2CCN(c3ccccn3)CC2)no1`: > 4 mM (inactive). In the case of `Cc1ccc(SCC(=O)N2CCOCC2)cc1`, the Kd was > 4 mM (inactive). Regarding `CC(C)(C)CC(=O)NNC(=O)c1cnccn1`, the Kd was > 4 mM (inactive). Next, `NC(=O)c1ccc(-c2ccccn2)s1`: > 4 mM (inactive); `COc1cccc(/C=C2/SC(N)=NC2=O)c1`: > 4 mM (inactive); `C[C@H]1CCCC(=O)CCC/C=C/c2cc(O)cc(O)c2C(=O)O1`: > 4 mM (inactive). As for `Nc1ncnc2nc[nH]c12`, the Kd is > 4 mM (inactive). For the compound `C[n+]1ccn(C/C(N)=N/O)c1`, the Kd is > 4 mM (inactive). `Nc1cncc(C(=O)O)c1`: the Kd was > 4 mM (inactive). Next, `Cc1occc(=O)c1O`: > 4 mM (inactive); `NC(=O)CSCc1ccc(Br)cc1`: > 4 mM (inactive); `Cc1cc(SCCF)n2ncnc2n1`: > 4 mM (inactive). Next, `O=c1nc(NCc2ccco2)sc2ncccc12`: > 4 mM (inactive); `O=S1(=O)CCC(NCc2ccccc2)C1` (stereo unspecified): > 4 mM (inactive). Regarding `O=C(O)C1CSC(c2cccnc2)N1` (stereo unspecified), the Kd is > 4 mM (inactive). As to `COc1ccc(Cl)cc1-c1n[nH]c(=S)n1C`, the Kd was > 4 mM (inactive).

Regarding `Cc1cc(O)c2c(c1O)C(=O)c1c(O)cc(C)c(O)c1C2=O`, the Kd is > 4 mM (inactive). In the case of `COc1c2occc2cc2ccc(=O)oc12`, the Kd was > 4 mM (inactive). Next, `Cc1nn(C)c2sc(CO)cc12`: > 4 mM (inactive); `O=C(O)c1csc(-c2ccccc2)n1`: > 4 mM (inactive). In the case of `O=C1CC(=O)N(c2ccccc2)c2ccccc21`, the Kd is > 4 mM (inactive). Next, `O=C(O)C1CC(=O)N(CCc2ccc(Cl)cc2)C1` (stereo unspecified): > 4 mM (inactive); `Cc1nn(-c2ccccc2C(=O)O)c(=O)c2ccccc12`: > 4 mM (inactive). As for `O=C(NCc1n[nH]c(=O)c2ccccc12)C1CC1`, the Kd is > 4 mM (inactive). Take `COc1cc2occc2c2oc(=O)ccc12`: the Kd was > 4 mM (inactive). Next, `CC(=O)OC/C=C(\C)CC/C=C(\C)CC/C=C(\C)CC/C=C(\C)CC/C=C(\C)CC/C=C(\C)CC/C=C(\C)CC/C=C(\C)CCC=C(C)C`: > 4 mM (inactive). On to `COc1ccc2c(c1OC)C(=O)OC2[C@H]1c2c(cc3c(c2OC)OCO3)CCN1C` (stereo partly specified), for which the Kd is > 4 mM (inactive). Next, `OC1CCNC2CCCCC12` (stereo unspecified): > 4 mM (inactive). The value for `CC1CCN(C(=O)c2cc3ccccc3o2)CC1` was > 4 mM (inactive); that for `O=c1[nH]c(=S)[nH]c2c1CCC2` was > 4 mM (inactive). Next, `O=C(NC1=NCCS1)c1cccc(F)c1`: > 4 mM (inactive); `COC(=O)c1ccc(Cl)c(NC(C)=O)c1`: > 4 mM (inactive). As to `Cc1[nH]c2ccccc2c(=O)c1CO`, the Kd is > 4 mM (inactive).

In the case of `CC(C)c1c(O)ccc2c1CCC1[C@@](C)(CO)CCC[C@]21C` (stereo partly specified), the Kd is > 4 mM (inactive). `COc1cccc(NC(=O)c2cccs2)c1`: the Kd was > 4 mM (inactive). The value for `Cc1cccc(C(C)C)c1NC(=O)c1cccnc1` was > 4 mM (inactive); that for `O=C(NC1=NCCS1)c1ccc(Cl)s1` was > 4 mM (inactive). The value for `Cc1cc(O)c(C=O)c(O)c1C(=O)O` was > 4 mM (inactive). Consider `O=C1NC(=S)N/C1=C\c1cccc([N+](=O)[O-])c1`, for which the Kd was > 4 mM (inactive).

Consider `c1ccc2[nH]c(SCc3cscn3)nc2c1`, for which the Kd was > 4 mM (inactive). Next, `Cc1cc(S(=O)(=O)N2CCOCC2)ccc1F`: > 4 mM (inactive); `N#Cc1nc(N2CCCCC2)nc(N2CCOCC2)n1`: > 4 mM (inactive). Consider `CC1=NN(c2ccc(C)cc2)C(=O)C1`, for which the Kd is > 4 mM (inactive). Take `O=c1[nH]c(CN2CCN(CCO)CC2)nc2ccccc12`: the Kd is > 4 mM (inactive). The value for `Oc1ccc(/C=C/c2cc(O)cc(O)c2)cc1` was > 4 mM (inactive); that for `CCC(=O)Nc1cc(C(C)C)c(O)cc1C` was > 4 mM (inactive).

As to `O=C(Nc1ccccc1)c1cccc(N2C(=O)CCC2=O)c1`, the Kd is > 4 mM (inactive). `O=c1c2ccccc2nc(-c2ccco2)n1-c1nccs1`: the Kd is > 4 mM (inactive).

For `O=C1CSC(=O)N1CNc1ccccc1`, the Kd is > 4 mM (inactive). The value for `COc1cccc2c1CCC1=CC(=O)CC[C@@]12C` was > 4 mM (inactive); that for `CCCS(=O)(=O)N1CCN(c2ccccn2)CC1` was > 4 mM (inactive); that for `Cn1nnc2cc(CO)ccc21` was > 4 mM (inactive). Next, `Clc1ccc(-c2noc(CN3CCCC3)n2)cc1`: > 4 mM (inactive); `Cc1cn(C(=O)CN2C(=O)c3ccccc3C2=O)c(C)n1`: > 4 mM (inactive).

For the compound `COc1c2c(cc3c1OCO3)CCN(C)C2`, the Kd is > 4 mM (inactive). On to `COc1cc([C@@H]2c3cc4c(cc3C(OC3O[C@@H]5COC(C)O[C@H]5[C@H](O)[C@H]3O)C3COC(=O)[C@@H]32)OCO4)cc(OC)c1O` (stereo partly specified), for which the Kd was > 4 mM (inactive). As to `COc1ccc2[nH]cc(CN(C)C)c2c1`, the Kd was > 4 mM (inactive).

Regarding `Cc1ccccc1C(=O)Nc1cccc(N)c1`, the Kd was > 4 mM (inactive). Next, `O=C1NC(=S)NC(=O)C1=Cc1cccs1`: > 4 mM (inactive); `NC(=O)C1(c2ccccc2)CCOCC1`: > 4 mM (inactive); `NC(=O)CSc1nnc2ccc3ccccc3n12`: > 4 mM (inactive). As to `NC(=O)CNC(=O)c1ccccc1`, the Kd was > 4 mM (inactive).

Consider `Nc1ncnc2c1ncn2CCN1CCCCC1`, for which the Kd is > 4 mM (inactive).

Regarding `C=CCc1ccc(OC(=O)c2ccccc2)c(OC)c1`, the Kd was > 4 mM (inactive). Next, `COc1ncnc(N)c1[N+](=O)[O-]`: > 4 mM (inactive); `CC(C)=CCCC1(C)C=Cc2c(O)c3c(c(CC=C(C)C)c2O1)OC12C(=CCCC1C(C)(C)O[C@@]2(C/C=C(\C)C(=O)O)C(=O)O)C3=O` (stereo partly specified): > 4 mM (inactive). Turning to `Cc1sc2nc[nH]c(=S)c2c1C`, the Kd was > 4 mM (inactive). Next, `Cc1nc2ccc(C(=O)O)cc2[nH]1`: > 4 mM (inactive); `CC(=O)OC1CC[C@@]2(C)C(CCC3C2CC[C@]2(C)C(C4=CC(=O)OC4)C(OC(C)=O)CC32O)C1` (stereo partly specified): > 4 mM (inactive). The value for `O=C(NC1CCS(=O)(=O)C1)c1cccs1` (stereo unspecified) was > 4 mM (inactive).

Take `Cc1occc1C(=O)NCc1ccncc1`: the Kd is > 4 mM (inactive). For `O=C(O)CCCN1CNC(=S)NC1`, the Kd is > 4 mM (inactive). With `O=C1COc2cc(O)ccc21`, the Kd is > 4 mM (inactive). For the compound `O=C(O)c1[nH]nc2c1COc1ccccc1-2`, the Kd was > 4 mM (inactive). On to `Nc1nnc(SCc2ccccc2Cl)s1`, for which the Kd was > 4 mM (inactive). Next, `OC[C@H]1O[C@@H](Oc2ccc(O)cc2)[C@H](O)[C@@H](O)[C@@H]1O`: > 4 mM (inactive). As for `Cc1ccc(/C=N/n2c(C)nnc2C)cc1`, the Kd was > 4 mM (inactive).

As to `CC1/C(=N/O)C[C@@H]2C[C@H]1C2(C)C` (stereo partly specified), the Kd was > 4 mM (inactive). The value for `C(=N\n1cnnc1)/c1cccs1` was > 4 mM (inactive); that for `COC(=O)CSc1nc(N)cc(=O)[nH]1` was > 4 mM (inactive).

`Nc1ccc2ncsc2c1`: the Kd was > 4 mM (inactive).

Consider `Cc1ccc(-c2c(C)n([O-])c(C)c(C)[n+]2=O)cc1`, for which the Kd is > 4 mM (inactive). Next, `C=C(C)[C@@H]1CC[C@]2(CO)CC[C@]3(C)[C@H](CCC4[C@@]5(C)CC[C@H](O)C(C)(C)C5CC[C@]43C)C12` (stereo partly specified): > 4 mM (inactive). As to `Nc1cc(=O)[nH]c(=O)n1Cc1ccco1`, the Kd is > 4 mM (inactive).

In the case of `CC(=O)Nc1cc(C(F)(F)F)ccc1N1CCOCC1`, the Kd is > 4 mM (inactive). For the compound `O=C(/C(=N\O)n1cncn1)c1ccccc1Cl`, the Kd is > 4 mM (inactive).

As to `O=C(Cc1cccs1)N1CCOCC1`, the Kd is > 4 mM (inactive).

As to `Cn1c(=O)c2[nH]c(Nc3ccccc3)nc2n(C)c1=O`, the Kd is > 4 mM (inactive). Next, `O=C1CC(c2ccccc2)n2ncnc2N1` (stereo unspecified): > 4 mM (inactive); `C[C@@H]1CC[C@@]2(OC1)OC1C(O)C3C4CC[C@H]5C[C@H](O[C@@H]6O[C@H](CO)[C@H](O[C@@H]7O[C@H](CO)[C@@H](O)[C@H](O[C@@H]8OC[C@@H](O)[C@H](O)[C@H]8O)[C@H]7O[C@@H]7O[C@H](CO)[C@H](O)[C@H](O[C@@H]8O[C@H](CO)[C@@H](O)[C@H](O)[C@H]8O)[C@H]7O)[C@H](O)[C@H]6O)[C@H](O)C[C@]5(C)C4CC[C@]3(C)C1[C@@H]2C` (stereo partly specified): > 4 mM (inactive). For the compound `Cc1nc(-c2ccccc2)sc1CO`, the Kd is > 4 mM (inactive). Next, `COCc1cc(=O)oc2cc(N)ccc12`: > 4 mM (inactive); `O=C1CC(=O)N(c2ccccc2)C(=O)N1`: > 4 mM (inactive). Next, `Nc1n[nH]c(=S)n1-c1ccccc1`: > 4 mM (inactive); `CC1SC(=NC(=O)c2ccncc2)NC1=O` (stereo unspecified): > 4 mM (inactive). Next, `Cc1cccc(NC(=O)CN2C(=O)CNC2=O)c1`: > 4 mM (inactive); `CCOC(=O)c1cnc2n(c1=O)CCS2`: > 4 mM (inactive). With `CCCCn1c(S(=O)(=O)O)nc2ccccc21`, the Kd is > 4 mM (inactive).

`CC12CNCC(C)(CNC1)C2O` (stereo unspecified): the Kd is > 4 mM (inactive). Take `COC(=O)C(O)[C@@H]1C2(C)C(=O)[C@@H](CC3=C4CC(=O)O[C@@H](c5ccoc5)[C@]4(C)CCC32)[C@H](OC(C)=O)C1(C)C` (stereo partly specified): the Kd was > 4 mM (inactive).
